Assay results as given in PMC5418711, “Safety and efficacy of the choline analogue SAR97276 for malaria treatment: results of two phase 2, open-label, multicenter trials in African patients” (Malaria Journal, 2017).
Like-named read-outs stand apart in the source and are kept apart here.

Tests used:
[1] = Study 1: safety assessment (TEAEs, laboratory tests, ECG); type: in vivo, human; conditions: for QTc interval - change from baseline Borderline: Incr. from B 30-60 ms / QTc interval - change from baseline Prolonged: Incr. from B > 60 ms / QTc interval Prolonged: > 450 ms (m); > 470 ms (f) / QTc interval ≥ 500 ms: TEAE period
Method: Follow-up visits were done on day 6, 8, 14 ± 2, 21 ± 2, 28 ± 2 (Study 1); and day 7, 14 ± 2, 21 ± 2, 28 ± 2 (Study 2). […] Parasitemia was determined microscopically by Giemsa stained thick blood smear by two trained microscopists blinded to each other. […] For Study 2 respiratory parameters (respiratory rate, peak flow, efficiency of cough) were also checked at baseline and 30 min after first dose on day 1, 2 and 3.
Treatment emergent adverse events (TEAEs) were defined as AEs that developed or worsened during the treatment period until day 6 following the end of study treatment.

[2] = system: malaria mouse model; design: method as in PMID 11847346, PMID 15492221, PMID 12878525; conditions: cited from earlier work; for Curative 4-day dose: mouse model
[3] = Population pharmacokinetics in plasma, Study 1 and Study 2; type: in vivo, human; conditions: for AUC(0-t) / Cmax / Vd / clearance: human, plasma; for AUC(0-t) / Cmax: mean and SD; for AUC(0-t): read-out: AUC or AUC0-24,ss; for Cmax: read-out: Cmax or Cmax,ss; for Vd: read-out: Median central volume of distribution V2; for clearance: read-out: Median clearance (converted)
Method: Rescue therapy was initiated in case of clinical aggravation of recrudescent parasites in both studies, the exact description for each study can be seen in the supplement (Additional file 3). Pharmacokinetic analysis: Plasma samples were assayed using a validated liquid chromatography-mass spectrometry method with a limit of quantification of 1 ng/ml for SAR97276. The pharmacokinetic analysis was performed using a population pharmacokinetic modeling approach.
The pharmacokinetics of SAR97276 were best described by a three-compartment model, with a first order absorption (ka), with interindividual variability on clearances and central volume of distribution.

[4] = Group 1A, one patient, three days after study medication
[5] = Group 1A: 1 day IM 0.18 mg/kg, adults, N=34
[6] = Group 1A: 1 day IM 0.18 mg/kg, adults
[7] = Group 1B: 3 days IM 0.18 mg/kg, adults, N=30
[8] = Group 1B: 3 days IM 0.18 mg/kg, adults
[9] = Group 1C: 1 day IV 0.14 mg/kg, adults, N=30
[10] = Group 1C: 1 day IV 0.14 mg/kg, adults
[11] = Group 1D: 3 days IM 0.18 mg/kg, children, N=19
[12] = Group 1D: 3 days IM 0.18 mg/kg, children
[13] = im, 0.18 mg/kg, Group 1D: 3 days IM 0.18 mg/kg, children, n=14
[14] = im, 0.18 mg/kg, Study 1 Adults IM (1A + 1B) 0.18 mg/kg, n=64
[15] = im, 0.5 mg/kg, Group 2A: 3 days IM once daily 0.5 mg/kg, teenagers, n=8
[16] = intramuscular, 0.18 mg/kg, children
[17] = iv, 0.14 mg/kg, Group 1C: 1 day IV 0.14 mg/kg, adults, n=30

SMILES: Cc1c(CCO)sc[n+]1CCCCCCCCCCCC[n+]1csc(CCO)c1C [SAR97276A]
- ALT increase in the patient with cytolytic hepatitis [1, 4]: 4.5 × upper limit than normal (ULN)
- AST increase in the patient with cytolytic hepatitis [1, 4]: 11 × ULN
- Total bilirubin in the patient with cytolytic hepatitis [1, 4]: ≥ 1.5 × ULN
- Patients who did not complete study treatment [1, 5]: 0
- Patients with any TEAE [1, 5]: 18 (52.9%)
- TEAE: Arthralgia [1, 5]: 1 (2.9%)
- TEAE: Convulsion [1, 5]: 0
- TEAE: Cough [1, 5]: 2 (5.9%)
- TEAE: Cytolytic hepatitis [1, 5]: 1 (2.9%)
- TEAE: Dizziness [1, 5]: 1 (2.9%)
- TEAE: Eyelid pruritus [1, 5]: 0
- TEAE: Gastrointestinal disorders [1, 5]: 3 (8.8%)
- TEAE: General Disorders/Administration site disorders [1, 5]: 3 (8.8%)
- TEAE: Headache [1, 5]: 4 (11.8%)
- TEAE: Hypertension [1, 5]: 0
- TEAE: Malaria [1, 5]: 2 (5.9%)
- TEAE: Neck pain [1, 5]: 2 (5.9%)
- TEAE: Paraesthesia [1, 5]: 0
- TEAE: Pneumonia [1, 5]: 1 (2.9%)
- TEAE: Pruritus [1, 5]: 0
- TEAE: Rhinitis [1, 5]: 2 (5.9%)
- TEAE: Thrombocytopenia [1, 5]: 0
- TEAE: Urticaria [1, 5]: 1 (2.9%)
- TEAE: Vertigo [1, 5]: 2 (5.9%)
- QTc interval - change from baseline Borderline: Incr. from B 30-60 ms [1, 6]: 0/33
- QTc interval - change from baseline Prolonged: Incr. from B > 60 ms [1, 6]: 0/33
- QTc interval Prolonged: > 450 ms (m); > 470 ms (f) [1, 6]: 0/33
- QTc interval ≥ 500 ms [1, 6]: 0/33
- Further patients with an elevated AST (> 3 x ULN), apart from the SAE patient ([1]; Group 1A: adults, single IM dose): one
- Patients who did not complete study treatment [1, 7]: 0
- Patients with any TEAE [1, 7]: 18 (60%)
- Patients with any serious AE [1, 7]: 0
- TEAE: Bradycardia [1, 7]: 0
- TEAE: Convulsion [1, 7]: 0
- TEAE: Cough [1, 7]: 2 (6.7%)
- TEAE: Cytolytic hepatitis [1, 7]: 0
- TEAE: Dizziness [1, 7]: 1 (3.3%)
- TEAE: Eyelid pruritus [1, 7]: 0
- TEAE: Gastrointestinal disorders [1, 7]: 7 (23.3%)
- TEAE: General Disorders/Administration site disorders [1, 7]: 1 (3.3%)
- TEAE: Headache [1, 7]: 4 (13.3%)
- TEAE: Hypertension [1, 7]: 1 (3.3%)
- TEAE: Malaria [1, 7]: 0
- TEAE: Neck pain [1, 7]: 1 (3.3%)
- TEAE: Paraesthesia [1, 7]: 1 (3.3%)
- TEAE: Pneumonia [1, 7]: 0
- TEAE: Pruritus [1, 7]: 1 (3.3%)
- TEAE: Rhinitis [1, 7]: 0
- TEAE: Tachycardia [1, 7]: 1 (3.3%)
- TEAE: Thrombocytopenia [1, 7]: 0
- TEAE: Urticaria [1, 7]: 0
- TEAE: Vertigo [1, 7]: 2 (6.7%)
- QTc interval - change from baseline Borderline: Incr. from B 30-60 ms [1, 8]: 0/30
- QTc interval - change from baseline Prolonged: Incr. from B > 60 ms [1, 8]: 0/30
- QTc interval Prolonged: > 450 ms (m); > 470 ms (f) [1, 8]: 0/30
- QTc interval ≥ 500 ms [1, 8]: 0/30
- Patients who did not complete study treatment [1, 9]: 0
- Patients with any TEAE [1, 9]: 14 (46.7%)
- Patients with any serious AE [1, 9]: 0
- TEAE: Arthralgia [1, 9]: 1 (3.3%)
- TEAE: Bradycardia [1, 9]: 0
- TEAE: Convulsion [1, 9]: 0
- TEAE: Cough [1, 9]: 1 (3.3%)
- TEAE: Cytolytic hepatitis [1, 9]: 0
- TEAE: Dizziness [1, 9]: 2 (6.7%)
- TEAE: Eyelid pruritus [1, 9]: 0
- TEAE: Gastrointestinal disorders [1, 9]: 1 (3.3%)
- TEAE: General Disorders/Administration site disorders [1, 9]: 0
- TEAE: Headache [1, 9]: 3 (10%)
- TEAE: Hypertension [1, 9]: 0
- TEAE: Malaria [1, 9]: 0
- TEAE: Neck pain [1, 9]: 0
- TEAE: Paraesthesia [1, 9]: 0
- TEAE: Pneumonia [1, 9]: 0
- TEAE: Pruritus [1, 9]: 0
- TEAE: Rhinitis [1, 9]: 0
- TEAE: Tachycardia [1, 9]: 0
- TEAE: Thrombocytopenia [1, 9]: 0
- TEAE: Urticaria [1, 9]: 0
- TEAE: Vertigo [1, 9]: 0
- QTc interval - change from baseline Prolonged: Incr. from B > 60 ms [1, 10]: 0/30
- QTc interval Prolonged: > 450 ms (m); > 470 ms (f) [1, 10]: 0/30
- QTc interval ≥ 500 ms [1, 10]: 0/30
- Patients with any TEAE [1, 11]: 11 (57.9%)
- TEAE: Arthralgia [1, 11]: 0
- TEAE: Bradycardia [1, 11]: 0
- TEAE: Convulsion [1, 11]: 1 (5.3%)
- TEAE: Cough [1, 11]: 1 (5.3%)
- TEAE: Cytolytic hepatitis [1, 11]: 0
- TEAE: Dizziness [1, 11]: 0
- TEAE: Eyelid pruritus [1, 11]: 1 (5.3%)
- TEAE: Gastrointestinal disorders [1, 11]: 5 (26.3%)
- TEAE: General Disorders/Administration site disorders [1, 11]: 1 (5.3%)
- TEAE: Headache [1, 11]: 3 (15.8%)
- TEAE: Hypertension [1, 11]: 0
- TEAE: Malaria [1, 11]: 0
- TEAE: Neck pain [1, 11]: 0
- TEAE: Paraesthesia [1, 11]: 0
- TEAE: Pneumonia [1, 11]: 0
- TEAE: Pruritus [1, 11]: 0
- TEAE: Rhinitis [1, 11]: 0
- TEAE: Tachycardia [1, 11]: 0
- TEAE: Urticaria [1, 11]: 0
- TEAE: Vertigo [1, 11]: 0
- QTc interval - change from baseline Borderline: Incr. from B 30-60 ms [1, 12]: 0/18
- QTc interval - change from baseline Prolonged: Incr. from B > 60 ms [1, 12]: 0/18
- QTc interval Prolonged: > 450 ms (m); > 470 ms (f) [1, 12]: 0/18
- QTc interval ≥ 500 ms [1, 12]: 0/18
- Deaths ([1]; Study 1): No deaths
- ECG abnormalities, clinical significance ([1]; Study 1): No clinical significant abnormalities
- Ophthalmologic disorders possibly related to SAR97276A ([1]; Study 1): No ophthalmologic disorders
- Participants with alkaline phosphatase elevated (> 1.5 x ULN) ([1]; Study 1): 19
- SAEs regarded as related to SAR97276A by the investigators ([1]; Study 1): None
- Tolerability ([1]; Study 1): well tolerated
- Patients with a serious adverse event (SAE), total ([1]; Study 1, all groups): four
- Patients who experienced a TEAE, all cohorts ([1]; Study 1, out of 113 patients): 61 (54%)
- Efficacy in malaria mouse model [2]: highly efficacious
- Curative 4-day dose ([2]; orally): 20 to 45 mg/kg/day
- Curative 4-day dose ([2]; parenterally): 1 mg/kg/day
- AUC(0-t) [3, 13]: 479 ± 111 ng·h/mL
- Cmax [3, 13]: 332 ± 91 ng/mL
- AUC(0-t) [3, 14]: 674 ± 109 ng·h/mL
- Cmax [3, 14]: 355 ± 51 ng/mL
- AUC(0-t) ([3]; im, 0.25 mg/kg, Group 2B: 3 days IM twice daily 0.25 mg/kg, teenagers, n=8, AUC0-12 at steady state multiplied by 2): 1400 ± 270 ng·h/mL
- Cmax ([3]; im, 0.25 mg/kg, Group 2B: 3 days IM twice daily 0.25 mg/kg, teenagers, n=8): 477 ± 91 ng/mL
- AUC(0-t) [3, 15]: 1470 ± 375 ng·h/mL
- Cmax [3, 15]: 862 ± 45 ng/mL
- Vd [3, 16]: 0.217 L/kg
- clearance [3, 16]: 6.55 mL/min/kg
- AUC(0-t) [3, 17]: 480 ± 92 ng·h/mL
- Cmax [3, 17]: 390 ± 55 ng/mL
- Vd ([3]; adults): 0.27 L/kg
- clearance ([3]; adults): 4.58 mL/min/kg
- Inter-individual variability based on Cmax and AUC ([3]; whatever the populations or the route of administration): < 25%
